Data taken from US12618082B2, “Engineered muscle targeting compositions” (priority 2020, dated 2026).
Entries after “also recorded” stand apart in the source; their conditions may differ.

Experiments:
[1] = target: T1, αV-containing integrin heterodimers (Mus musculus, UniProt P43406); test: Small molecule pan-αV integrin antagonist inhibition of transduction, mouse primary myotubes; assay type: cell-based; details: increasing concentrations of the antagonist; capsid named in the value
T1 construct: endogenous in cells; host or cells: mouse primary myotubes differentiated from C57BL/6J satellite cells
T1 sequence (P43406 31-1044): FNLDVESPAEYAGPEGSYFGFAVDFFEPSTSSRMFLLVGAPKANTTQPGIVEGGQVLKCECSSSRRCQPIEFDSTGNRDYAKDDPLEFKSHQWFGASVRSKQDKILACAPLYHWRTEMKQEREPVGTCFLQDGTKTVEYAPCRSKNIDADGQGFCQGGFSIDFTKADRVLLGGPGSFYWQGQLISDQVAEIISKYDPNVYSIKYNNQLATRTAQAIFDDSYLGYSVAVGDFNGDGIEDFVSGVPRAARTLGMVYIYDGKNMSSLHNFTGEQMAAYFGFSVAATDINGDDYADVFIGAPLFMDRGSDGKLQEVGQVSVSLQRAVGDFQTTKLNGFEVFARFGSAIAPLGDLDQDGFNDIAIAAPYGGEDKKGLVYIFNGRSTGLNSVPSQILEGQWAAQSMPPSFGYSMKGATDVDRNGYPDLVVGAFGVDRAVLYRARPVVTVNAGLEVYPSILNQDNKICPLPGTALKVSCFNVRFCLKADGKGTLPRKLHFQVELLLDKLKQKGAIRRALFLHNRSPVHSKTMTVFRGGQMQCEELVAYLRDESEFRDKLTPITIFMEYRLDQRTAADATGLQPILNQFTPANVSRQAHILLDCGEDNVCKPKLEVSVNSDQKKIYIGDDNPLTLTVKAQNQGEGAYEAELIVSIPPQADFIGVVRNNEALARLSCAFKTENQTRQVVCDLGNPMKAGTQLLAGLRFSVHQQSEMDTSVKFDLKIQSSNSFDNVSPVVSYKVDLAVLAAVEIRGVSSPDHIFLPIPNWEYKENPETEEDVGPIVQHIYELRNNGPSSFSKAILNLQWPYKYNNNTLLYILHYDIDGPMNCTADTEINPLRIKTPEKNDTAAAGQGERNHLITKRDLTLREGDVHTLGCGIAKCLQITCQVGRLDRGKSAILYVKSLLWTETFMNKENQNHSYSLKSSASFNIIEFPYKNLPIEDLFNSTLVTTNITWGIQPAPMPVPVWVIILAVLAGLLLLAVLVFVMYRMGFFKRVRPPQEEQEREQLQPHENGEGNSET
Method: (§1) Pan-alpha V integrin antagonists CWHM-12 and GLPG0187 (MedChem Express), or anti-αVβ6 antibody (ab77906, abcam) were diluted in DMEM containing 2% horse serum at the specified concentrations. Media was removed from differentiated myotubes and replaced with the diluted inhibitors, after which the myotubes were incubated on ice for 30 minutes to inhibit endocytosis. Following this incubation, AAV9-, MyoAAV-, or EMyoAAV-CK8-Nluc were added to the cells at 5E+3 vg/cell and the plates were transferred back to the tissue culture incubators. 24 hours after transduction, luciferase intensity was measured with the Nano-Glo Luciferase Assay (Promega).

[2] = target: T2, αV-containing integrin heterodimers (Homo sapiens, UniProt P06756); test: Small molecule pan-αV integrin antagonist inhibition of transduction, human primary myotubes; assay type: cell-based; details: increasing concentrations of the antagonist; capsid named in the value
T2 construct: endogenous in cells; host or cells: human primary skeletal muscle myotubes differentiated from Lonza myoblasts
Method: as §1

T2 sequence (P06756 31-889 limits assumed): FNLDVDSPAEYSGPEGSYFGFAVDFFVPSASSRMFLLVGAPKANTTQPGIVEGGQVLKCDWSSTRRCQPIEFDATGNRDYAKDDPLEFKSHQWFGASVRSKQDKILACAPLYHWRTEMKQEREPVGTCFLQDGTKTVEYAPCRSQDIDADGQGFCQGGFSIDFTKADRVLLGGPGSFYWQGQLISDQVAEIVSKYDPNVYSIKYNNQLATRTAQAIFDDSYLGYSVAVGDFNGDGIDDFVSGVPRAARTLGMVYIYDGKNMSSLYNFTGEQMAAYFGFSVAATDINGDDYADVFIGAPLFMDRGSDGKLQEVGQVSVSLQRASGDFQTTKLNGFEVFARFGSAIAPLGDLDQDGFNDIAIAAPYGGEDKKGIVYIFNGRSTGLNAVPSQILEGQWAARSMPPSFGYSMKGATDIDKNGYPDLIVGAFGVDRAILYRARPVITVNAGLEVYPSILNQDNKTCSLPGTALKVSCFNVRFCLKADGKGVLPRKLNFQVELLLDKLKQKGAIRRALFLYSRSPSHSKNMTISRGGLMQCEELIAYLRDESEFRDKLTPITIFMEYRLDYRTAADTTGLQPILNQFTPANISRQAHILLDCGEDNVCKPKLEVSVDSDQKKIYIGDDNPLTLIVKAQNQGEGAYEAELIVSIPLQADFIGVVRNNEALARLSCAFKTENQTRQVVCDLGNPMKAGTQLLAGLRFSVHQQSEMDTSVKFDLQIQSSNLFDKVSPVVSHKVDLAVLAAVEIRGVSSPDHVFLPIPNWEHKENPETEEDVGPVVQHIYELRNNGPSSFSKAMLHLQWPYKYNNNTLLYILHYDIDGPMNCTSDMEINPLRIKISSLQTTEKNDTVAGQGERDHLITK
T2 sequence (P06756 891-1048 limits assumed): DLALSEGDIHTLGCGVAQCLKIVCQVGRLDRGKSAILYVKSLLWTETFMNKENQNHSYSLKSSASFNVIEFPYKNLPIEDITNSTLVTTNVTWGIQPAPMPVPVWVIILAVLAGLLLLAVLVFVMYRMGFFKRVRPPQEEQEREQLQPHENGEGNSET

| Structure (SMILES) | effect of the pan-αV integrin antagonist on AAV transduction efficiency, mouse primary myotubes [1] | effect of the pan-αV integrin antagonist on AAV transduction efficiency, human primary myotubes [2] |
| --- | --- | --- |
| CC(C)(C)c1cc(Br)cc([C@H](CC(=O)O)NC(=O)CNC(=O)c2cc(O)cc(NC3=NCC(O)CN3)c2)c1 (stereo partly shown) [CWHM-12] | impeded MyoAAV 1A transduction in a dose-dependent manner | impeded MyoAAV 1A transduction in a dose-dependent manner |
| COc1ccc(S(=O)(=O)N[C@@H](CNc2nc(C)nc(N3CCC(c4ccc5c(n4)NCCC5)CC3)c2C)C(=O)O)cc1 [GLPG-0187] | impeded MyoAAV 1A transduction in a dose-dependent manner | dose-dependent decrease in the transduction efficiency of EMyoAAV; also recorded: impeded MyoAAV 1A transduction in a dose-dependent manner; also recorded: dose-dependent decrease in the transduction efficiency of MyoAAV 2A; also recorded: dose-dependent decrease in transduction for all the 4 variants |
